Assay results as given in the supplement of paper PMC10627819.

Tests used:
B. subtilis 168 [1] = assay: fitness (endpoint OD595 vs no drug) (fraction); higher = more growth
Method in brief: (§1)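 Fitness was defined as the optical density at the transition into stationary phase relative to the robust mean of no-drug control wells. Values were capped at 1. Cultures were started at OD595 0.01 in 384-well plates (30 µl, or 55 µl for S. pneumoniae) in TSB, LB Lennox or CY at 37 °C. OD595 was recorded every 30 min over 14 h, with the first reading subtracted as background.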

S. aureus DSM 20231 [2] = assay: as above
Method in brief: as §1

S. aureus Newman [3] = assay: as above
Method in brief: as §1

S. pneumoniae D39V [4] = assay: as above
Method in brief: as §1

B. subtilis 168 [5] = assay: Bliss interaction score (quartile over a dose matrix) (fitness difference); higher = more antagonism (negative = synergy)
Method in brief: (§2)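 The Bliss score is observed minus expected fitness under the product model, reported as quartiles over technical, biological and donor/recipient replicates. Fitness is the OD595 at entry into stationary phase divided by the plate's robust no-drug mean and capped at 1. Single-drug fitness was inferred from combination data.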

S. aureus DSM 20231 [6] = assay: as above
Method in brief: as §2

S. aureus Newman [7] = assay: as above
Method in brief: as §2

S. pneumoniae D39V [8] = assay: as above
Method in brief: as §2
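Wherever Bliss interaction score (quartile over a dose matrix) is given: first quartile when negative (synergy) and third quartile when positive (antagonism).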

CO/N=C(\C(=O)N[C@@H]1C(=O)N2C(C(=O)O)=C(COC(C)=O)CS[C@H]12)c1csc(N)n1 [Cefotaxime] + COc1ccc(C[C@H](N)C(=O)N[C@H]2[C@@H](O)[C@H](n3cnc4c(N(C)C)ncnc43)O[C@@H]2CO)cc1 [Puromycin]
fitness, one replicate
Settings	partner 0.39 µg/mL	partner 0.78 µg/mL	partner 1.56 µg/mL	partner 3.12 µg/mL	partner 6.24 µg/mL
B. subtilis 168 [1], first compound 0.00775 µg/mL	0.887	0.903	0.816	–	–
B. subtilis 168 [1], first compound 0.0155 µg/mL	0.71	0.726	0.668	–	–
B. subtilis 168 [1], first compound 0.031 µg/mL	0.558	0.574	0.616	–	–
S. aureus DSM 20231 [2], first compound 0.039 µg/mL	0.811	0.79	0.806	–	–
S. aureus DSM 20231 [2], first compound 0.078 µg/mL	–	–	–	0.895	0.653
S. aureus DSM 20231 [2], first compound 0.156 µg/mL	–	–	–	0.841	0.646
S. aureus DSM 20231 [2], first compound 0.312 µg/mL	–	–	–	0.808	0.417
S. aureus Newman [3], first compound 0.039 µg/mL	0.734	0.771	0.719	–	–
S. aureus Newman [3], first compound 0.625 µg/mL	0.0309	0.0612	0.0601	–	–
S. aureus Newman [3], first compound 1.25 µg/mL	0.0598	0.0843	0.0641	–	–
S. aureus Newman [3], first compound 2.5 µg/mL	0.0418	0.0601	0.0425	–	–

fitness
Settings	partner 0.39 µg/mL	partner 0.78 µg/mL	partner 1 µg/mL	partner 1.56 µg/mL	partner 2 µg/mL	partner 4 µg/mL
B. subtilis 168 [1], first compound 0.5 µg/mL	0.267	0.284	–	0.312	–	–
B. subtilis 168 [1], first compound 1 µg/mL	0.144	0.147	–	0.169	–	–
B. subtilis 168 [1], first compound 2 µg/mL	0.113	0.125	–	0.147	–	–
S. aureus DSM 20231 [2], first compound 0.078 µg/mL	0.748	0.774	–	0.833	–	–
S. aureus DSM 20231 [2], first compound 0.156 µg/mL	0.72	0.781	–	0.796	–	–
S. aureus DSM 20231 [2], first compound 0.312 µg/mL	0.644	0.689	–	0.712	–	–
S. aureus Newman [3], first compound 0.078 µg/mL	0.739	0.729	–	0.782	–	–
S. aureus Newman [3], first compound 0.156 µg/mL	0.633	0.698	–	0.702	–	–
S. aureus Newman [3], first compound 0.312 µg/mL	0.408	0.456	–	0.437	–	–
S. pneumoniae D39V [4], first compound 0.0018 µg/mL	–	–	0.973	–	≥ 1	0.885
S. pneumoniae D39V [4], first compound 0.0035 µg/mL	–	–	0.931	–	0.975	0.766
S. pneumoniae D39V [4], first compound 0.007 µg/mL	–	–	0.93	–	0.919	0.662

Settings	Bliss interaction score
B. subtilis 168 [5]	0.104
S. aureus DSM 20231 [6]	0.0471
S. aureus Newman [7]	0.0762
S. pneumoniae D39V [8]	0.11

COc1ccc(C[C@H](N)C(=O)N[C@H]2[C@@H](O)[C@H](n3cnc4c(N(C)C)ncnc43)O[C@@H]2CO)cc1 [Puromycin] + CN(N=O)C(=O)N[C@@H](C=O)[C@@H](O)[C@H](O)[C@H](O)CO [Streptozotocin]
fitness, one replicate
Settings	partner 0.15 µg/mL	partner 0.3 µg/mL	partner 0.6 µg/mL
B. subtilis 168 [1], first compound 0.39 µg/mL	0.999	0.978	≥ 1
B. subtilis 168 [1], first compound 0.78 µg/mL	≥ 1	≥ 1	0.981
B. subtilis 168 [1], first compound 1.56 µg/mL	≥ 1	0.925	0.938
S. aureus DSM 20231 [2], first compound 3.12 µg/mL	0.907	0.853	0.806
S. aureus DSM 20231 [2], first compound 6.24 µg/mL	0.706	0.6	0.549

fitness
Settings	first compound 0.39 µg/mL	first compound 0.78 µg/mL	first compound 1 µg/mL	first compound 1.56 µg/mL	first compound 2 µg/mL	first compound 4 µg/mL
S. aureus DSM 20231 [2], partner 0.15 µg/mL	0.894	0.887	–	0.937	–	–
S. aureus DSM 20231 [2], partner 0.3 µg/mL	0.863	0.857	–	0.812	–	–
S. aureus DSM 20231 [2], partner 0.6 µg/mL	0.714	0.772	–	0.705	–	–
S. aureus Newman [3], partner 0.15 µg/mL	0.912	0.835	–	0.871	–	–
S. aureus Newman [3], partner 0.3 µg/mL	0.737	0.7	–	0.706	–	–
S. aureus Newman [3], partner 0.6 µg/mL	0.595	0.534	–	0.559	–	–
S. pneumoniae D39V [4], partner 1.2 µg/mL	–	–	0.913	–	0.942	0.8
S. pneumoniae D39V [4], partner 2.4 µg/mL	–	–	0.943	–	0.935	0.806
S. pneumoniae D39V [4], partner 4.8 µg/mL	–	–	0.969	–	0.926	0.749

Settings	Bliss interaction score
B. subtilis 168 [5]	0.0705
S. aureus DSM 20231 [6]	0.0762
S. aureus Newman [7]	0.0523
S. pneumoniae D39V [8]	0.0919

CO/N=C(\C(=O)N[C@@H]1C(=O)N2C(C(=O)O)=C(COC(C)=O)CS[C@H]12)c1csc(N)n1 [Cefotaxime] + CN(N=O)C(=O)N[C@@H](C=O)[C@@H](O)[C@H](O)[C@H](O)CO [Streptozotocin]
fitness, one replicate
Settings	partner 0.15 µg/mL	partner 0.3 µg/mL	partner 0.6 µg/mL
B. subtilis 168 [1], first compound 0.00775 µg/mL	0.767	0.832	0.787
B. subtilis 168 [1], first compound 0.0155 µg/mL	0.721	0.743	0.715
B. subtilis 168 [1], first compound 0.031 µg/mL	0.526	0.518	0.502
B. subtilis 168 [1], first compound 0.5 µg/mL	0.34	0.342	0.347
B. subtilis 168 [1], first compound 1 µg/mL	0.132	0.136	0.146
B. subtilis 168 [1], first compound 2 µg/mL	0.0874	0.126	0.183
S. aureus DSM 20231 [2], first compound 0.039 µg/mL	0.756	0.675	0.551
S. aureus Newman [3], first compound 0.625 µg/mL	0.0252	0.0161	0
S. aureus Newman [3], first compound 1.25 µg/mL	0.023	0.0017	0
S. aureus Newman [3], first compound 2.5 µg/mL	0.0355	0.0302	0

fitness
Settings	first compound 0.0018 µg/mL	first compound 0.0035 µg/mL	first compound 0.007 µg/mL	first compound 0.078 µg/mL	first compound 0.156 µg/mL	first compound 0.312 µg/mL
S. aureus DSM 20231 [2], partner 0.15 µg/mL	–	–	–	0.691	0.653	0.609
S. aureus DSM 20231 [2], partner 0.3 µg/mL	–	–	–	0.612	0.617	0.614
S. aureus DSM 20231 [2], partner 0.6 µg/mL	–	–	–	0.552	0.564	0.521
S. aureus Newman [3], partner 0.15 µg/mL	–	–	–	0.641	0.476	0.253
S. aureus Newman [3], partner 0.3 µg/mL	–	–	–	0.539	0.389	0.133
S. aureus Newman [3], partner 0.6 µg/mL	–	–	–	0.403	0.204	0.0516
S. pneumoniae D39V [4], partner 1.2 µg/mL	0.957	0.963	0.889	–	–	–
S. pneumoniae D39V [4], partner 2.4 µg/mL	0.97	0.964	0.775	–	–	–
S. pneumoniae D39V [4], partner 4.8 µg/mL	0.978	0.938	0.861	–	–	–

Settings	Bliss interaction score
B. subtilis 168 [5]	0.0848
S. aureus DSM 20231 [6]	-0.0448
S. aureus Newman [7]	-0.0599
S. pneumoniae D39V [8]	0.0325

CO/N=C(\C(=O)N[C@@H]1C(=O)N2C(C(=O)O)=C(COC(C)=O)CS[C@H]12)c1csc(N)n1 [Cefotaxime] + C[n+]1ccc(-c2cc[n+](C)cc2)cc1 [Paraquat]
fitness, one replicate
Settings	partner 1.25 µg/mL	partner 2.5 µg/mL	partner 5 µg/mL
B. subtilis 168 [1], first compound 0.00775 µg/mL	0.847	0.764	0.596
B. subtilis 168 [1], first compound 0.0155 µg/mL	0.694	0.613	0.332
B. subtilis 168 [1], first compound 0.031 µg/mL	0.494	0.423	0.279
S. aureus DSM 20231 [2], first compound 0.039 µg/mL	0.729	0.775	0.767
S. aureus Newman [3], first compound 0.625 µg/mL	0.0489	0.0421	0.0459
S. aureus Newman [3], first compound 1.25 µg/mL	0.0645	0.0717	0.0769
S. aureus Newman [3], first compound 2.5 µg/mL	0.0777	0.0674	0.0627

fitness
Settings	partner 1.25 µg/mL	partner 1.5 µg/mL	partner 2.5 µg/mL	partner 3 µg/mL	partner 5 µg/mL	partner 6 µg/mL
B. subtilis 168 [1], first compound 0.5 µg/mL	0.199	–	0.171	–	0.166	–
B. subtilis 168 [1], first compound 1 µg/mL	0.108	–	0.0698	–	0.0734	–
B. subtilis 168 [1], first compound 2 µg/mL	0.0929	–	0.0597	–	0.0873	–
S. aureus DSM 20231 [2], first compound 0.078 µg/mL	0.762	–	0.767	–	0.748	–
S. aureus DSM 20231 [2], first compound 0.156 µg/mL	0.656	–	0.704	–	0.703	–
S. aureus DSM 20231 [2], first compound 0.312 µg/mL	0.611	–	0.664	–	0.65	–
S. aureus Newman [3], first compound 0.078 µg/mL	0.694	–	0.688	–	0.702	–
S. aureus Newman [3], first compound 0.156 µg/mL	0.521	–	0.542	–	0.573	–
S. aureus Newman [3], first compound 0.312 µg/mL	0.304	–	0.314	–	0.29	–
S. pneumoniae D39V [4], first compound 0.0018 µg/mL	–	0.986	–	0.971	–	0.957
S. pneumoniae D39V [4], first compound 0.0035 µg/mL	–	0.992	–	≥ 1	–	0.962
S. pneumoniae D39V [4], first compound 0.007 µg/mL	–	0.944	–	0.93	–	0.843

Settings	Bliss interaction score
B. subtilis 168 [5]	-0.0771
S. aureus DSM 20231 [6]	-0.0739
S. aureus Newman [7]	-0.0297
S. pneumoniae D39V [8]	-0.0531
